SMILES strings stand for the structures.

Data on one compound can be found in patent US20100249050A1, “[…] AND USE THEREOF” (SHANDONG UNIVERSITY, priority 2008, published 2010).

What all share (conditions): for Inhibition rate of growth: 48-72 hrs
Test [1] relates to human liver cancer cell HepG2. In words: Antitumor activity test (MTT reduction / SRB protein staining), growth inhibition of HepG2. It is filed as cell-based. The source says: (§1) Screening method: methyl-thiazol-tettazolium (MTT) reduction method and sulforhodamine B (SRB) protein staining method.
(§2) Cell strains: human liver cancer cell HepG2, human lung cancer cell A-549, and breast cancer cell MDA-MB-435.

Test [2] relates to human lung cancer cell A-549. In words: Antitumor activity test (MTT reduction / SRB protein staining), growth inhibition of A-549. The format is cell-based.
Description: as §1, §2
(Tetrazolium assays rely on reduction of a dye to a coloured formazan, in cell work by metabolically active cells.)

Test [3] deals with breast cancer cell MDA-MB-435. In words: Antitumor activity test (MTT reduction / SRB protein staining), growth inhibition of MDA-MB-435. The format is cell-based, human.
Description: as §1, §2

For orientation: IC50 means the concentration that gives 50% inhibition. Low readings indicate higher potency, high ones lower potency. On to `CC(=Cc1csc(C)n1)C1CC2OC2CCCC(C)C(O)C(C)C(=O)C(C)(C)C(OC2OC(CO)C(O)C2O)CC(=O)O1` (centres unmarked) [epothilone glycoside A-1], for which the IC50 was determined as 70 nM in test [1] (HepG2, 48-72 hrs) and 2070 nM in test [3] (MDA-MB-435, 48-72 hrs). Further, the “Inhibition grade (no / weak / strong effect)” value in test [1] (HepG2, at the concentration of 10^−6 M) is recorded as “strong inhibition”; in test [2] (A-549, at the concentration of 10^−6 M), “weak inhibition”; in test [3] (MDA-MB-435, at the concentration of 10^−6 M) it was “weak inhibition”. Further, the “Inhibition rate of growth” value in test [1] (HepG2, concentration 10^−4 M) is listed as 100; in test [1] (HepG2, concentration 10^−5 M) it was 99.9; in test [1] (HepG2, concentration 10^−6 M), 93.3; in test [1] (HepG2, concentration 10^−7 M), 41.5; in test [1] (HepG2, concentration 10^−8 M), 15.7; in test [2] (A-549, concentration 10^−4 M) it was 90.6. Further, the “Inhibition rate of growth” value in test [2] (A-549, concentration 10^−5 M) is 83.7; in test [2] (A-549, concentration 10^−6 M), 72.0; in test [2] (A-549, concentration 10^−7 M), 0; in test [2] (A-549, concentration 10^−8 M) it was 0; in test [3] (MDA-MB-435, concentration 1 μM), 18.9; in test [3] (MDA-MB-435, concentration 2 μM) it was 55.0. Also, the “Inhibition rate of growth” value is listed as 76.1 in test [3] (MDA-MB-435, concentration 4 μM); 84.6 in test [3] (MDA-MB-435, concentration 8 μM); 98.2 in test [3] (MDA-MB-435, concentration 10 μM).
